Test results: patent US20220243177A1, “METHODS OF CULTURING QUIESCENT HEMATOPOIETIC STEM CELLS AND TREATMENT METHODS” (priority 2019, published 2022)

Experiments:
[1] = test system: MMP-low and MMP-high HSCs (LSKCD150+CD48-); assay: Single cell division assay; type: cell-based, mouse; details: for Number of wells with each number of cell division: 0 / Number of wells with each number of cell division: 1 / Number of wells with each number of cell division: Dead / Number of wells with each number of cell division: ≥2: 60 h
Procedure: Single Cell Division Assay: Single cell cultures were carried out as previously described (Bernitz et al., “Hematopoietic Stem Cells Count and Remember Self-Renewal Divisions,” Cell 167(5): 1296-1309 (2016), which is hereby incorporated by reference in its entirety). Single MMP-low and MMP-high HSCs (LSKCD150^+CD48^−) isolated from GFP-transgenic mice were FACS sorted into individual wells of round-bottomed 96-well plates. Single cells were visually confirmed under light microscope and cultured in serum free Stemspan medium. Wells were supplemented with SCF (100 ng/ml) and TPO (20 ng/ml) (both from R&D system), were incubated at 37° C. in a humidified atmosphere with 5% CO2, and the number of cells per well was monitored daily. The final number of cell divisions per well was assessed at the indicated time points in each experiment. Treatments with concanamycin A (“ConA”) (40-100 nM) or DMSO control were added at the start of culture and left in the wells for the duration of the experiment unless otherwise stated. More than 200 cells per condition were analyzed. Cell Cycle Analysis—Pyronin Y staining. Pyronin Y staining was performed as described in Rimmele et al., “Mitochondrial Metabolism in Hematopoietic Stem Cells Requires Functional FOXO3,” EMBO Rep. 16: 1164-1176 (2015) and Yalcin et al., “Foxo3 Is Essential for the Regulation of Ataxia Telangiectasia Mutated and Oxidative Stress-mediated Homeostasis of Hematopoietic Stem Cells,” J. Biol. Chem. 283: 25692-25705 (2008), which are hereby incorporated by reference in their entirety. FACS-purified MMP-low and MMP-high LT-HSCs were stained with Hoechst 33342 ([…]) at 37° C. for 45 minutes, followed by staining with pyronin Y (1 mg/ml) for an additional 15 minutes at 37° C. Cells were then washed in cold PBS, and resuspended in IMDM+2% FBS. Samples were immediately analyzed by flow cytometry.

[2] = test system: MMP-low and MMP-high HSCs; assay: Autophagic vacuole formation / lysosomal localization of mitochondria (confocal immunofluorescence); type: cell-based, mouse
Excerpt: Immunofluorescence Staining, Imaging, and Analysis—Super Resolution Confocal Microscopy: Images were acquired with a Zeiss LSM 880 confocal microscope equipped with Airyscan Super Resolution Imaging module, using a 100×/1.46 Alpha Plan Apochromat objective lens (Zeiss MicroImaging, Jena, Germany) with “optimal” (Nyquist) XY scaling. Z stacks through the entire cell were acquired at an […] (at least 20 optical sections) using a pixel dwell time of >50 microseconds and field dimensions of […] (20 MMP-low and 20 MMP-high HSCs analyzed). This was followed by Airyscan image processing (set at auto but rarely over 6.2) and analyses using ZEN image acquisition and processing software (ZEN blue/black). Maximum intensity projections shown in the figures were also obtained using ZEN Blue software.
Lysosomal Localization of Mitochondria. FACS-sorted MMP-low and MMP-high HSCs (LSKCD150^+CD48^-MMP-low/-high) were treated with DMSO control or leupeptin […] for 4 hours. HSCs were then fixed and imaged for TOM20 (mitochondria) and LAMP1 (lysosomes).
Autophagic Vacuole Formation. Accumulation of autophagy substrates, Translocase of outer membrane 20 (TOM20) or Map11c3a (LC3), was determined in the presence of amino acid-containing (DMSO) or -starved amino acid-depleted media, v-ATPase inhibitor concanamycin A (ConA 40nM), inhibitor of autophagosome-autolysosome fusion chloroquine (CQ, […]), or protease inhibitor, leupeptin […] following guidelines outlined for study of autophagy (Klionsky et al., “Guidelines for the Use and Interpretation of Assays for Monitoring Autophagy (3rd Edition),” Autophagy 12(1): 1-222 (2016) and Martinez-Lopez et al., “Autophagy Proteins Regulate ERK Phosphorylation,” Nat. Commun. 4: 2799 (2013), which are hereby incorporated by reference in their entirety). In brief, FACS-sorted
MMP-low and MMP- high HSCs were cultured in the presence or absence of indicated inhibitors for 4, 5, or 18 hours following which cells were subjected to immunofluorescence assays for TOM20, LC3 and/or LAMP1 or LAMP2 as described above. Analyses were performed to quantify the turnover of indicated protein in lysosomes by evaluating the accumulation of TOM20 or LC3 in the presence versus absence of an inhibitor. TOM20 and LC3 flux were determined by subtracting the colocalized value of inhibitor-untreated TOM20 or LC3 with LAMP1 from corresponding inhibitor-treated values. Images were captured using a Zeiss LSM880 Airyscan confocal microscope using 100 X objectives (Leica), and percentage colocalization was calculated using the JACoP plugin (NIH ImageJ).
Mitochondrial and Lysosome Morphology: Freshly isolated HSCs were analyzed for mitochondrial morphology. Each individual HSC (150 total) was analyzed by using Arivis Vision 4D software and classified as either fragmented or not fragmented in accordance with number of surfaces. Cells that fulfilled the definition of ‘fragmented’ contained 3 or more individual mitochondrial surfaces (Kask et al., “Fluorescence-intensity Distribution Analysis and Its Application in Biomolecular Detection Technology,” Proc. Natl. Acad. Sci. USA 96(24): 13756-13761 (1999), which is hereby incorporated by reference in its entirety). Lysosomes' fluorescence intensity or area profiling was calculated using ImageJ software enabling the detection of fluorescently labeled […] boundaries (lysosomal marker LAMP1), as reflected by sharp increases or decreases in fluorescence intensity. Channels displaying fluorescence for either mitochondria or lysosomes were thresholded with the IsoData option to delimit the boundaries of mitochondrial networks and lysosome morphology. The resulting outlines were measured using the analyzed particles option to determine the size of distinct particles representing mitochondrial networks or lysosomes. More than 50 cells/condition/experiment were analyzed for lysosomes. […]

[3] = aging HSCs, ConA 40 nM, 60-hour

C/C=C/[C@H]1O[C@@](O)([C@@H](C)[C@H](O)[C@H](C)[C@H]2OC(=O)/C(OC)=C/C(C)=C/[C@@H](C)[C@@H](O)[C@@H](CC)[C@@H](O)[C@H](C)C/C(C)=C/C=C/[C@@H]2OC)C[C@@H](O[C@H]2C[C@@H](O)[C@H](OC(N)=O)[C@@H](C)O2)[C@@H]1C [ConA, concanamycin A]
frequency of non-dividing MMP-high GFP+ HSCs ([1]; ConA 40 nM, up to 60 hours): significantly increased
non-dividing MMP-low HSCs in culture ([1]; ConA 40 nM, up to 60 hours): only a slight effect
Number of wells with each number of cell division: 0 ([1]; MMP High + Con A (40 nM)): 23.8 ± 1.33
Number of wells with each number of cell division: 1 ([1]; MMP High + Con A (40 nM)): 8.8 ± 0.84
Number of wells with each number of cell division: Dead ([1]; MMP High + Con A (40 nM)): 14.4 ± 0.92
Number of wells with each number of cell division: ≥2 ([1]; MMP High + Con A (40 nM)): 7.4 ± 2.62
Number of wells with each number of cell division: 0 ([1]; MMP Low + Con A (40 nM)): 35.8 ± 8.89
Number of wells with each number of cell division: 1 ([1]; MMP Low + Con A (40 nM)): 7.4 ± 1.24
Number of wells with each number of cell division: Dead ([1]; MMP Low + Con A (40 nM)): 7 ± 1.51
Number of wells with each number of cell division: ≥2 ([1]; MMP Low + Con A (40 nM)): 4.6 ± 1.53
cell death of aging HSC in culture [1, 3]: without any increase in cell death
division of aging HSC in culture [1, 3]: divided less than non-treated HSC
fold increase of enlarged lysosomes, MMP-high HSCs ([2]; 5-hour ConA treatment, 40 nM): 35
fold increase of enlarged lysosomes, MMP-low HSCs ([2]; 5-hour ConA treatment, 40 nM): 32
increase of lysosomal localization of TOM20, MMP-high HSCs ([2]; ConA 40 nM): ~3 fold
increase of lysosomal localization of TOM20, MMP-low HSCs ([2]; ConA 40 nM): ~1.3 fold
mitochondrial fragmentation ([2]; ConA 40 nM): enhanced mitochondrial fragmentation
increase in LC3-positive puncta, MMP-high HSCs ([2]; ConA 40 nM, 18 hours): 3 fold
increase in LC3-positive puncta, MMP-low HSCs ([2]; ConA 40 nM, 18 hours): 1.33 fold
autolysosomal degradation (colocalization of LAMP1 with LC3) ([2]; ConA 40 nM, leupeptin 100 mM, chloroquine 40 mM, 18 hours, MMP-low and MMP-high HSCs): dramatically prevented autolysosomal degradation
